PMC6731595, “The anti-parasitic agent suramin and several of its analogues are inhibitors of the DNA binding protein Mcm10” (Open Biology, 2019)
Structures can show the parent of a compound that is named as a salt.

Assays:
[1] = molecular target: T1, full-length Xenopus Mcm10 (xMcm10-FL) (Xenopus laevis, UniProt Q5EAW4); assay: Fluorescence polarization competition assay, displacement of 5′-6FAM ssDNA probe from xMcm10-FL; assay type: binding; conditions: for activity at xMcm10-FL (result in words): FP displacement curves, figure S3; for Ki: averages of n = 2, xMcm10-FL 2 μM
T1 construct: The full-length xMcm10 was expressed with MBP fused onto the N-terminus and 6x-His tag attached to the C-terminus; 6xHis (C); made in house; host or cells: E. coli BL21(DE3), as for the ID constructs ('as described above')
T1 sequence (Q5EAW4 1-860): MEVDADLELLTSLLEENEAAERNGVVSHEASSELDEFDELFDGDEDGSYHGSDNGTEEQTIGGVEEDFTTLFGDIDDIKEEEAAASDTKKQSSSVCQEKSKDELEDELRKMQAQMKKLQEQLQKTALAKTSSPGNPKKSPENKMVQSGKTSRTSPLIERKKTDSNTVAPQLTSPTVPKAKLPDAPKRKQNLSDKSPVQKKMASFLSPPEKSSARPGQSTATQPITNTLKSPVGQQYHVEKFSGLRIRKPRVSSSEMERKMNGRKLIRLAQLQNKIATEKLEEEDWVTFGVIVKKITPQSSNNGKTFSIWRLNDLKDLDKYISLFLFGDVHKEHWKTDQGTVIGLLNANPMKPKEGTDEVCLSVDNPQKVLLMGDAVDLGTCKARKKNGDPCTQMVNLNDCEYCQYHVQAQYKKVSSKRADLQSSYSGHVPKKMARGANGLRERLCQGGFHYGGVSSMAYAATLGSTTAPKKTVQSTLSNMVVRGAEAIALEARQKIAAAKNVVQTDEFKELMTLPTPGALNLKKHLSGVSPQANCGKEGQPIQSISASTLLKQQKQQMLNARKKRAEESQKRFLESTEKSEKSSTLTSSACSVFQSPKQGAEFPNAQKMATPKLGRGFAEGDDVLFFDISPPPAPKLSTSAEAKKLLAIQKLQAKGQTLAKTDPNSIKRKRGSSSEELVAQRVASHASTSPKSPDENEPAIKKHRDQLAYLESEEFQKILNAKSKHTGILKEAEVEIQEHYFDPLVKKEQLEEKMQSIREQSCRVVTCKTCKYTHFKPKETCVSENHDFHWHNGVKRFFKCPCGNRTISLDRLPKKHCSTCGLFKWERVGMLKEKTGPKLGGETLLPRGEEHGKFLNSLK
Method: A fluorescence polarization (FP) HTS assay was established to detect inhibitors of the binding of the 5′-6FAM 10-mer oligo probe to Mcm10. Test compounds dissolved in DMSO were added to 384-well plates (Corning 4514) using an Echo 550 acoustic dispenser (final DMSO 0.1%) to achieve a final single point screening concentration of 10 µM. Then 10 µl of 2× Xenopus internal domain Mcm10 (xMcm10-ID, final concentration 2 µM) in binding buffer (20 mM Tris HCl, 100 mM NaCl, 5% glycerol, and 0.01% triton, pH 7.5) was added using the Combi nL Multidrop dispenser. Finally, 10 µl of 2× 5′-6FAM DNA (final 12.5 nM) in binding buffer was added using the Multidrop. DMSO (0.1%, high signal) and probe only (low signal) controls were included on every plate. Plates were mixed for 2 min, incubated for 60 min at RT in the dark, and read on a CLARIOstar multimode plate reader (excitation: 482-16, emission: 530-40, dichroic filter: LP504).
The LOPAC pilot screen identified the sulfhydryl reagent 4-chloromercuribenzoic acid as an inhibitor in the fluorescence polarization (FP) assay. As there was no known Mcm10 inhibitor, 4-chloromercuribenzoic acid (30 μM) was used as a positive control on initial screening plates. Following the discovery of suramin as a Mcm10 inhibitor, suramin (7 μM) was used as a positive control on subsequent screening plates. To confirm activity, screening hits were tested in dose response experiments (8 concentrations in duplicate) using xMcm10-ID. Similar dose response experiments were conducted with suramin and its analogs to confirm activity for hMcm10-ID (1 μM) and xMcm10-FL (2 μM) and to determine selectivity relative to RPA70AB (0.4 μM). Saturation experiments for each protein were conducted using increasing concentrations of protein with a fixed probe concentration (12.5 nM). FP was measured in mP units, and ∆mP values for each well were calculated as the difference between the measured mP and the average of the “probe only” controls. […] The parallel and perpendicular mP values were also used to calculate total fluorescence intensity (TFI) determined by the sum of parallel mP + (2 x perpendicular mP). TFI was used to detect fluorescence interference by compounds [1]. […] IC50 values were calculated using the four parameter logistic equation in Prism 6.0 (GraphPad). Ki values were obtained using an online Ki calculator according to the equations of Nikolovska-Coleska (http://sw16.im.med.umich.edu/soft-ware/calc_ki/). KD values were calculated using the one site or two site binding equations in Prism 6.0 (GraphPad).

[2] = test system: HCT116 cells; assay: CellTiter-Glo cell viability assay, HCT116; assay type: cell-based, human; conditions: for IC50: Homo sapiens, HCT-116, 96 h, 4 days, intracellular ATP, mean ± s.e.m., n = 3
Method: Cells were cultured at 37°C and 5% CO2. […] Cells were allowed to grow for 4 days in inhibitor containing medium and cell viability was measured with the CellTiter-Glo Luminescent Cell Viability Assay (Promega G7572) following the manufacturer's instructions. Viability of each drug treatment condition was normalized to the untreated control for each cell line and fitted to the sigmoidal dose–response variable slope four parameter equation in GraphPad Prism 6.0.

[3] = test system: hTERT RPE-1 cells; assay: CellTiter-Glo cell viability assay, hTERT RPE-1; assay type: cell-based; conditions: Homo sapiens, hTERT-RPE1, 96 h; 4 days, intracellular ATP; mean ± s.e.m., n = 3
Method: HCT116 cells were grown in McCoy's 5A medium (Corning 10-050-CV) supplemented with 10% FBS (Sigma F4135), 1% Pen Strep (Gibco 15140) and 1% L-Glutamine (Gibco 205030). hTERT RPE-1 cells were grown in DMEM/F12 medium (Gibco 11320) supplemented with 10% FBS (Sigma F4135) and 1% Pen Strep (Gibco 15140). Cells were cultured at 37°C and 5% CO2. Cells were plated at 250 cells (hTERT RPE-1) or 500 cells (HCT116) per well in white-walled 96-well plates (Costar 3610) and allowed to recover for 24 h. Stock solutions of each inhibitor were prepared in sterile 1× PBS (Gibco 14190), and further diluted in the appropriate growth medium for each cell type. Cells were allowed to grow for 4 days in inhibitor containing medium and cell viability was measured with the CellTiter-Glo Luminescent Cell Viability Assay (Promega G7572) following the manufacturer's instructions. Viability of each drug treatment condition was normalized to the untreated control for each cell line and fitted to the sigmoidal dose–response variable slope four parameter equation in GraphPad Prism 6.0.

activity at xMcm10-FL (result in words) [1] | Ki [1] [µM] | selectivity = hTERT RPE-1 IC50/HCT116 IC50 [2] | IC50 [2] [µM] | higher affinity for hMcm10-ID over xMcm10-FL ([1]; FP Ki comparison) | SMILES | higher cytotoxicity for HCT116 cancer cells in comparison to hTERT RPE-1 cells [2] | IC50 [3] [µM]
inactivity | > 1000 | 1.5 | 370 ± 30 |  | Cc1nc(/N=N/c2cc(S(=O)(=O)O)ccc2S(=O)(=O)O)c(COP(=O)(O)O)c(C=O)c1O [iso-PPADS, pyridoxalphosphate-6-azophenyl-2’, 5’-disulfonic acid tetrasodium salt] | little cell type specificity | 560 ± 55
 | 3.4 | 3.2 | 38 ± 1 | up to 20 fold | O=C(Nc1cccc(C(=O)Nc2cc(C(=O)Nc3ccc(S(=O)(=O)O)c4cc(S(=O)(=O)O)cc(S(=O)(=O)O)c34)ccc2F)c1)Nc1cccc(C(=O)Nc2cc(C(=O)Nc3ccc(S(=O)(=O)O)c4cc(S(=O)(=O)O)cc(S(=O)(=O)O)c34)ccc2F)c1 [NF157] | approximately 3.5 fold | 120 ± 16
inactivity | > 1000 | 1.3 | 310 ± 20 |  | Cc1nc(/N=N/c2ccc(S(=O)(=O)O)cc2S(=O)(=O)O)c(COP(=O)(O)O)c(C=O)c1O [PPADS, pyridoxalphosphate-6-azophenyl-2’, 4’-disulfonic acid tetrasodium salt] | little cell type specificity | 400 ± 14
 | 4.4 |  |  |  | O=C(Nc1cccc(C(=O)Nc2ccc(S(=O)(=O)O)c3cc(S(=O)(=O)O)cc(S(=O)(=O)O)c23)c1)Nc1cccc(C(=O)Nc2ccc(S(=O)(=O)O)c3cc(S(=O)(=O)O)cc(S(=O)(=O)O)c23)c1 [NF023] |  | 

SMILES | activity at xMcm10-FL (result in words) [1] | Ki [1] [µM] | selectivity = hTERT RPE-1 IC50/HCT116 IC50 [2] | IC50 [2] [µM] | higher affinity for hMcm10-ID over xMcm10-FL ([1]; FP Ki comparison) | higher cytotoxicity for HCT116 cancer cells in comparison to hTERT RPE-1 cells [2] | IC50 [3] [µM]
Cc1ccc(C(=O)Nc2ccc(S(=O)(=O)O)c3cc(S(=O)(=O)O)cc(S(=O)(=O)O)c23)cc1NC(=O)c1cccc(NC(=O)Nc2cccc(C(=O)Nc3cc(C(=O)Nc4ccc(S(=O)(=O)O)c5cc(S(=O)(=O)O)cc(S(=O)(=O)O)c45)ccc3C)c2)c1 [suramin, suramin sodium salt] |  | 3.4 | 3.7 | 109 ± 10 |  | approximately 3.5 fold | 400 ± 22
